From article PMC10674446, “Synthesis and Structural Characterization of Novel Dimers of Dipyridothiazine as Promising Antiproliferative Agents” (Molecules, 2023)
Like-named read-outs stand apart in the source and are kept apart here.

How the values were obtained:
[1] = system: MCF7 and SW480 cancer cells; test: MTT cell viability assay, both cancer cell lines; format: cell-based, human; conditions: for toxicity towards both MCF7 and SW480 cancer cells (in words): 24, 48 and 72 h of incubation; for IC50: Homo sapiens, MCF7 and SW480, span over 24, 48 and 72 h, read-out: IC50 range towards both cancer cell lines; for cytotoxicity towards MCF7 compared with SW480 (in words): breast cancer cell line MCF7 versus colon cancer cell line SW480
Method: (§1) MCF7, SW480 and normal L6 muscle cells were bought from the ATCC company, USA [34]. MCF7 and SW480 adenocarcinoma cell lines were cultured, respectively, using Dulbecco’s Modified Eagle Medium (DMEM with 4.5 g/L glucose; HIMEDIA, Mumbai, India) supplemented with 100 U/mL penicillin, 100 µg/mL of streptomycin and 10% fetal bovine serum (FBS; Cat No. FBSEU500; Tico Europe, Amstelveen, The Netherlands) under standard conditions until the desired confluency was reached. Once the desired cell confluency of 70–80% was observed, the cells were sub-cultured through trypsinization, and the cell count was calculated prior to seeding in the 96-well microplate. Similarly, L6 rat myoblasts were cultured accordingly as normal cell lines to compare against MCF7 and SW480 cell lines during the MTT cell viability assay.
(§2) Cells were seeded in a 96-well microplate at a density of 1 × 10^4 cells per well and were allowed to adhere to the wells overnight. Subsequently, the cells were treated with varying concentrations of 12 compounds (1a,b,c–4a,b,c) along with doxorubicin as the positive control. The cells were exposed to the tested substances at concentrations ranging from 50, 25, 10, 5 and 1 μM. The treatment was conducted over three periods of 24 h, 48 h and 72 h, respectively. After the treatment period, thiazolyl blue tetrazolium bromide (MTT) solution was added to each well at a concentration of 0.5 mg/mL and incubated for 3 h in a 37 °C incubator supplemented with 5% CO2. Lastly, the spent MTT medium was removed and DMSO was added to the wells, where the purple formazan crystals were solubilized, and the intensity of the purple hue was spectrophotometrically measured at 570 nm.
(§3) All values were represented as means ± standard deviations (n = 3). The data were statistically analyzed using GraphPad Prism 10.1.0, where the IC50 values of each compound treated on different cell lines at different time points were obtained by extrapolating the logarithmic dose–response curve. The IC50 values were further subjected to one-way ANOVA analysis along with the post hoc test to determine the statistical significance between the treatment groups and the negative control (untreated cells).

MCF7 breast cancer = test: MTT cell viability assay, MCF7; format: cell-based, human; conditions: for Selectivity Index (SI), MCF-7: SI = IC50 L6 / IC50 MCF-7; for IC50: mean ± SD, n = 3, read-out: Anticancer Activity IC50, MCF-7
Method: as §1
(§4) Cells were seeded in a 96-well microplate at a density of 1 × 10^4 cells per well and were allowed to adhere to the wells overnight. […] The cells were exposed to the tested substances at concentrations ranging from 50, 25, 10, 5 and 1 μM. The treatment was conducted over three periods of 24 h, 48 h and 72 h, respectively. […] Lastly, the spent MTT medium was removed and DMSO was added to the wells, where the purple formazan crystals were solubilized, and the intensity of the purple hue was spectrophotometrically measured at 570 nm.
(§5) All values were represented as means ± standard deviations (n = 3). […] The IC50 values were further subjected to one-way ANOVA analysis along with the post hoc test to determine the statistical significance between the treatment groups and the negative control (untreated cells).

SW480 colon cancer = test: MTT cell viability assay, SW480; format: cell-based, human; conditions: for Selectivity Index (SI), SW480: SI = IC50 L6 / IC50 SW480; for IC50: mean ± SD, n = 3, read-out: Anticancer Activity IC50, SW480
Method: as §1, §4, §5

normal L6 rat myoblasts = test: MTT cell viability assay, normal L6 cells; format: cell-based; conditions: mean ± SD, n = 3, read-out: Anticancer Activity IC50, L6
Method: as §1, §2, §3

[2] = Homo sapiens, MCF7, 24 h treatment period
[3] = Homo sapiens, MCF7, 48 h treatment period
[4] = Homo sapiens, MCF7, 72 h treatment period, NA = IC50 beyond the tested concentration range (1-50 µM)
[5] = Homo sapiens, SW480, 24 h treatment period
[6] = Homo sapiens, SW480, 48 h treatment period
[7] = Homo sapiens, SW480, 72 h treatment period
[8] = Rattus norvegicus, Myoblast, 24 h treatment period
[9] = Rattus norvegicus, Myoblast, 48 h treatment period
[10] = Rattus norvegicus, Myoblast, 72 h treatment period
[11] = 72 h treatment period, NA = IC50 beyond the tested concentration range (1-50 µM)

Row | Compound | Selectivity Index (SI), MCF-7 (MCF7 breast cancer; 24 h) | Selectivity Index (SI), MCF-7 (MCF7 breast cancer; 48 h) | Selectivity Index (SI), MCF-7 (MCF7 breast cancer; 72 h) | IC50 (MCF7 breast cancer; [2]) | IC50 (MCF7 breast cancer; [3]) | IC50 (MCF7 breast cancer; [4]) | melting point | Selectivity Index (SI), SW480 (SW480 colon cancer; 24 h) | Selectivity Index (SI), SW480 (SW480 colon cancer; 48 h) | Selectivity Index (SI), SW480 (SW480 colon cancer; 72 h) | IC50 (SW480 colon cancer; [5]) | IC50 (SW480 colon cancer; [6]) | IC50 (SW480 colon cancer; [7]) | IC50 (normal L6 rat myoblasts; [8]) | IC50 (normal L6 rat myoblasts; [9]) | IC50 (normal L6 rat myoblasts; [10]) | also measured
1 | c1ccc(CN2c3cnccc3Sc3cccnc32)c(CN2c3cnccc3Sc3cccnc32)c1 [2a, 1,2-bis((dipyrido[3,2-b:3′,4′-e][1,4]thiazin-10-yl)methyl)benzene] | 3.5 | 1.83 | 1.59 | 6.27 ± 0.95 µM | 9.65 ± 0.63 µM | 8.16 ± 0.97 µM | 260 to 261 °C | 2.32 | 2.03 | 1.75 | 9.68 ± 0.17 µM | 8.74 ± 0.03 µM | 7.433 ± 0.02 µM | 22.1 ± 1.42 µM | 17.7 ± 0.27 µM | 13 ± 1.32 µM | toxicity towards both MCF7 and SW480 cancer cells (in words) [1]: significantly toxic; IC50 [1]: 6.27 to 9.68 µM
2 | c1cc(CN2c3cnccc3Sc3cccnc32)nc(CN2c3cnccc3Sc3cccnc32)c1 [2c, 2,6-bis((dipyrido[3,2-b:3′,4′-e][1,4]thiazin-10-yl)methyl)pyridine] | 0.76 | 1.91 | 1.80 | 23.2 ± 0.33 µM | 10.02 ± 0.05 µM | 9.96 ± 0.03 µM | 266 to 268 °C | 1.02 | 0.91 | 1.12 | 17.2 ± 1.46 µM | 21.1 ± 0.99 µM | 15.9 ± 1.48 µM | 17.6 ± 0.85 µM | 19.23 ± 0.13 µM | 18 ± 0.18 µM | cytotoxicity towards MCF7 compared with SW480 (in words) [1]: higher cytotoxicity
3 | c1ccc(CN2c3ccncc3Sc3ccncc32)c(CN2c3ccncc3Sc3ccncc32)c1 [3a, 1,2-bis((dipyrido[3,4-b:3′,4′-e][1,4]thiazin-10-yl)methyl)benzene] | 6.46 | 6.85 | 3.51 | 4.77 ± 0.84 µM | 3.17 ± 0.13 µM | 6.1 ± 1.33 µM | 280 to 282 °C | 5.02 | 5.22 | 4.69 | 6.12 ± 0.21 µM | 4.16 ± 0.08 µM | 4.56 ± 1.18 µM | 30.8 ± 0.47 µM | 21.7 ± 0.48 µM | 21.41 ± 0.17 µM | toxicity towards both MCF7 and SW480 cancer cells (in words) [1]: significantly toxic; IC50 [1]: 3.17 to 6.12 µM
4 | c1cnc2c(c1)Sc1ncccc1N2Cc1ccc(CN2c3cccnc3Sc3cccnc32)cc1 [1b, 1,4-bis((dipyrido[2,3-b:2′,3′-e][1,4]thiazin-10-yl)methyl)benzene] | 1.38 | 0.12 | 1.22 | 11.6 ± 0.15 µM | 15.9 ± 0.83 µM | 9.6 ± 0.46 µM | – | 0.55 | 0.1 | 0.59 | 28.7 ± 1.28 µM | 20.7 ± 1.22 µM | 19.8 ± 1.21 µM | 16 ± 0.36 µM | 1.92 ± 1.39 µM | 11.7 ± 0.59 µM | cytotoxicity towards MCF7 compared with SW480 (in words) [1]: higher cytotoxicity
5 | c1ccc(CN2c3ccncc3Sc3ncccc32)c(CN2c3ccncc3Sc3ncccc32)c1 [4a, 1,2-bis((dipyrido[2,3-b:4′,3′-e][1,4]thiazin-5-yl)methyl)benzene] | 1.10 | 0.68 | 0.75 | 32.7 ± 2.31 µM | 33.8 ± 1.46 µM | 19.9 ± 2.36 µM | 302 to 303 °C | 1.56 | 0.95 | 0.61 | 23 ± 1.22 µM | 24.1 ± 0.66 µM | 24.4 ± 0.83 µM | 35.9 ± 0.57 µM | 22.9 ± 1.39 µM | 14.9 ± 1.15 µM | –
6 | c1cc(CN2c3ccncc3Sc3ccncc32)nc(CN2c3ccncc3Sc3ccncc32)c1 [3c, 2,6-bis((dipyrido[3,4-b:3′,4′-e][1,4]thiazin-10-yl)methyl)pyridine] | 3.25 | 2.42 | 1.41 | 15 ± 0.73 µM | 11.7 ± 0.38 µM | 25.2 ± 1.74 µM | 245 to 247 °C | 2.19 | 0.94 | 1.37 | 22.3 ± 0.93 µM | 28.8 ± 1.55 µM | 25.9 ± 0.84 µM | 48.98 ± 0.33 µM | 28.4 ± 0.37 µM | 35.53 ± 0.04 µM | –
7 | COc1cccc2c1C(=O)c1c(O)c3c(c(O)c1C2=O)C[C@@](O)(C(=O)CO)C[C@@H]3O[C@H]1C[C@H](N)[C@H](O)[C@H](C)O1 [Doxorubicin, reference compound] | 0.41 | 0.25 | – | 28.4 ± 0.36 µM | 24.6 ± 2.37 µM | – | – | 0.85 | 0.63 | 0.28 | 13.46 ± 0.11 µM | 10.44 ± 0.1 µM | 10.77 ± 0.07 µM | 11.5 ± 0.68 µM | 6.62 ± 0.18 µM | 3.07 ± 0.38 µM | –
8 | 1,4-bis((dipyrido[2,3-b:2′,3′-e][1,4]thiazin-10-yl)methyl)benzene [4b] | 1.23 | 1.27 | 0.45 | – | – | – | – | 1.21 | 1.16 | 0.54 | – | – | – | – | – | – | IC50 (MCF7 breast cancer; 24 h treatment period): 29.7 ± 1.33 µM; IC50 (MCF7 breast cancer; 48 h treatment period): 24.24 ± 0.17 µM; IC50 (MCF7 breast cancer; [11]): 25.6 ± 0.35 µM; IC50 (SW480 colon cancer; 24 h treatment period): 29.1 ± 0.37 µM; IC50 (SW480 colon cancer; 48 h treatment period): 26.4 ± 0.74 µM; IC50 (SW480 colon cancer; 72 h treatment period): 21.41 ± 0.21 µM; IC50 (normal L6 rat myoblasts; 24 h treatment period): 36.7 ± 1.03 µM; IC50 (normal L6 rat myoblasts; 48 h treatment period): 30.8 ± 0.93 µM; IC50 (normal L6 rat myoblasts; 72 h treatment period): 11.6 ± 0.47 µM
9 | 1,4-bis((dipyrido[2,3-b:2′,3′-e][1,4]thiazin-10-yl)methyl)benzene [3b] | 1.09 | 0.81 | 1.17 | – | – | – | – | – | 1.07 | 1.15 | – | – | – | – | – | – | IC50 (MCF7 breast cancer; 24 h treatment period): 19 ± 1.23 µM; IC50 (MCF7 breast cancer; 48 h treatment period): 28 ± 0.65 µM; IC50 (MCF7 breast cancer; [11]): 18.89 ± 0.15 µM; IC50 (SW480 colon cancer; 24 h treatment period): 24.5 ± 0.26 µM; IC50 (SW480 colon cancer; 48 h treatment period): 21.19 ± 0.14 µM; IC50 (SW480 colon cancer; 72 h treatment period): 19.3 ± 0.12 µM; IC50 (normal L6 rat myoblasts; 24 h treatment period): 20.8 ± 0.28 µM; IC50 (normal L6 rat myoblasts; 48 h treatment period): 22.7 ± 0.29 µM; IC50 (normal L6 rat myoblasts; 72 h treatment period): 22.15 ± 0.22 µM
